Assay results as given in patent US20100075907A1, “NEUROMEDIN U RECEPTOR AGONISTS AND USES THEREOF” (priority 2006, published 2010).
Non-standard residues stand in square brackets, D forms with d. Residues, ends and D or L forms follow the SMILES beside them. hArg = N=C(N)NCCCC[C@H](N)C(=O)O; dNle = CCCC[C@@H](N)C(=O)O

Target: T1, hNMUR1 (Homo sapiens, UniProt Q9HB89)
T1 sequence (Q9HB89 1-426): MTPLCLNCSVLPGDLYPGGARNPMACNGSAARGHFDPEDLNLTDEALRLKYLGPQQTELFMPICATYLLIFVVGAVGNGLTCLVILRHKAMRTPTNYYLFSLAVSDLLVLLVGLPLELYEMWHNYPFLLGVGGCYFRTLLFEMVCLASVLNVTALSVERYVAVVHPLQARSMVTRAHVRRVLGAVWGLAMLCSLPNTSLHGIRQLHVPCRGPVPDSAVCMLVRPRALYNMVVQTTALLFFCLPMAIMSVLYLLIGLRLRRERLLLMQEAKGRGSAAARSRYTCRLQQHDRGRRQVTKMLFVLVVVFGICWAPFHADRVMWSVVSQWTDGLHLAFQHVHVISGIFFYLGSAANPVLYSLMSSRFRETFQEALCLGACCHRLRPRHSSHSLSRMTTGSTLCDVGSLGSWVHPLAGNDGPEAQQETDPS
Test: In vitro functional assay, HEK-hR1 cells
Type: cell-based
Set-up: expressed in transfected cells; host or cells: FLP-In CHO or HEK-293 FLP-In cells (pcDNA5); HEK-293/aeq17 lines (pIRES-puro) were also made
From the text: Human, mouse or rat cDNAs encoding NMUR1 or NMUR2 (as described in Howard et al. Nature 406: 70-74 (2000) were subcloned in pcDNA5 (Invitrogen) and transfected into FLP-In CHO cells and HEK-293 FLP-In cells purchased from Invitrogen (Carlsbad, Calif.) using lipofectamine (Invitrogen). The Flp-In system allows integration and expression of a particular gene of interest at a specific genomic location utilizing the Flp recombinase from yeast. The transfected cells were selected by growth in medium containing 200 μg/mL hygromycin (Invitrogen). Populations were frozen at early passage numbers, and these stocks were used for further studies. Stable clones that expressed the mRNAs were identified functionally by FLIPR as well as by RT-PCR. […] Two different rodent NMUR1 cell lines were thus generated: one with the codon as predicted from the genomic databases and another cell line with an engineered methionine (ATG) as the start codon. Additionally, stable cell lines expressing the human receptors were generated in HEK-293/aeq17 cells which stably express the aequorin gene under the CMV promoter. The human NMUR2 cDNA was cloned into pcDNA3.1 and human NMUR1 was subcloned into pIRES-puro (Clontech, Mountain View, Calif.), after transfection cells were selected in media containing G418 and either hygromycin (NMUR2) or puromycin (NMUR1).
The NMU receptors signal primarily through Gαq/11 proteins; therefore calcium mobilization assays can be utilized for functional activity.
Stable cell lines expressing human and or rodent NMUR1 or human NMUR2 receptors were plated at a density of 12,000 cells per well overnight on poly-lysine coated 384-well black-walled plates. The following day, the media was removed from the plates and the cells were subsequently loaded with Fluo-3 (Molecular Probes), a calcium sensitive dye, diluted in FLIPR buffer (1× Hank's buffered saline containing 20 mM HEPES, 0.1% BSA, 2.5 mM probenecid (Sigma) and 1.6 mM TR40). All reagents are from Invitrogen unless otherwise noted. Peptide stocks were resuspended in DMSO at a stock concentration of 2 mM and diluted in FLIPR buffer on the day of the experiment to a 4 μM working stock solution.
After a 90 minute incubation at room-temperature, cell plates were loaded onto a FLIPR (Molecular Devices) to monitor cellular fluorescence (excitation=488 nm; emission=540 nm) before and after compound/peptide addition. Eight to twelve point dose responses were tested on NMUR-expressing cell lines using FLIPR with 1 μM peptide as the highest dose. The response after peptide addition was taken as the maximum fluorescence units minus the fluorescence immediately prior to stimulation for each well. EC50 values were calculated using GraphPad Prism (San Diego, Calif.) software.
In addition to FLIPR, NMU receptor function can also be evaluated using an aequorin assay. Stable cell lines expressing the aequorin jelly fish gene can be used to report the activation of GPCRs by monitoring intracellular calcium mobilization. The objective is to identify compounds which specifically stimulate aequorin bioluminescence. Calcium-dependent luminescence is generated by the treatment of cells with the coelenterate luciferin, coelenterazine. Briefly, confluent monolayers of HEK-293/aeq 17 cells expressing hNMUR1 or hNMUR2 are “charged” with coelenterazine (Molecular Probes, Carlsbad, Calif.). Confluent T75 flasks are rinsed with media containing 300 μM glutathione and 0.1% FBS. Cells are incubated at 37° C. for one hour in 8 mL media, 0.1% FBS, 300 μM glutathione, and 20 μM coelenterazine. T75 flasks are subsequently rinsed with 6 mL ECB buffer (140 mM NaCl, 20 mM KCl, 20 mM HEPES, 5 mM glucose, 1 mM MgCl, 1 mM CaCl2, 0.1 mg/mL BSA, PH 7.3-7.4). Cells are removed from the flask in ECB buffer, pelleted, and resuspended at a density of 2×10^5 cells/mL. Agonists are added to the cells and activity is determined using a luminometer. […]

SMILES | % Activity (Table 8, HEK-hR1, functional) [%] | % Activity (Table 9, HEK-hR1, functional) [%] | EC50 (Table 9, HEK-hR1, functional) [µM]
CC(C)C[C@@H](NC(=O)[C@H](Cc1ccccc1)NC(=O)[C@@H](N)Cc1ccc(O)cc1)C(=O)N[C@@H](Cc1c[nH]c2ccccc12)C(=O)N[C@@H](CCCNC(=N)N)C(=O)N1CCC[C@H]1C(=O)N[C@@H](CCCNC(=N)N)C(=O)N[C@@H](CC(N)=O)C(N)=O [Agonist B, YF-(D-L)-WRPRN-CONH2] (H-YF[dL]WRPRN-NH2) | 103 |  | 
C[C@@H](NC(=O)[C@H](Cc1ccccc1)NC(=O)[C@@H](N)Cc1ccc(O)cc1)C(=O)N[C@@H](Cc1c[nH]c2ccccc12)C(=O)N[C@@H](CCCNC(=N)N)C(=O)N1CCC[C@H]1C(=O)N[C@@H](CCCNC(=N)N)C(=O)N[C@@H](CC(N)=O)C(N)=O [Agonist D, YF-(D-A)-WRPRN-CONH2] (H-YF[dA]WRPRN-NH2; N-terminus assumed) | 96 |  | 
CC(=O)N[C@@H](Cc1ccccc1)C(=O)N[C@H](CC(C)C)C(=O)N[C@@H](Cc1c[nH]c2ccccc12)C(=O)N[C@@H](CCCNC(=N)N)C(=O)N1CCC[C@H]1C(=O)N[C@@H](CCCNC(=N)N)C(=O)N[C@@H](CC(N)=O)C(N)=O [Agonist E, Ac-F-(D-L)-WRPRN-CONH2] (Ac-F[dL]WRPRN-NH2) | 100 |  | 
CC(C)C[C@H](NC(=O)[C@H](Cc1c[nH]c2ccccc12)NC(=O)[C@@H](N)Cc1ccccc1)C(=O)N[C@@H](Cc1ccccc1)C(=O)N[C@@H](CCCNC(=N)N)C(=O)N1CCC[C@H]1C(=O)N[C@@H](CCCCNC(=N)N)C(=O)N[C@@H](CC(N)=O)C(N)=O [Agonist I, FWLFRP-(Harg)-N-CONH2] (H-FWLFRP[hArg]N-NH2) |  | 7 | > 1
CC(C)C[C@H](NC(=O)[C@H](Cc1c[nH]c2ccccc12)NC(=O)[C@@H](N)Cc1ccccc1)C(=O)N[C@@H](Cc1ccccc1)C(=O)N[C@@H](CCCNC(=N)N)C(=O)N[C@@H](C)C(=O)N[C@@H](CCCCNC(=N)N)C(=O)N[C@@H](CC(N)=O)C(N)=O [Agonist J, FWLFRA-(Harg)-N-CONH2] (H-FWLFRA[hArg]N-NH2) |  | 0 | > 1
CCCC[C@@H](NC(=O)[C@H](CCCNC(=N)N)NC(=O)[C@H](C)NC(=O)[C@H](CCCNC(=N)N)NC(=O)[C@H](Cc1ccccc1)NC(=O)[C@H](CC(C)C)NC(=O)[C@H](Cc1ccccc1)NC(=O)[C@@H](N)Cc1c[nH]c2ccccc12)C(N)=O [Agonist K, WFLFRAR-(D-Nle)-CONH2] (H-WFLFRAR[dNle]-NH2) |  | 61 | 0.4
CC(C)C[C@H](NC(=O)[C@H](Cc1c[nH]c2ccccc12)NC(=O)[C@H](Cc1ccccc1)NC(=O)CNC(=O)[C@H](CCCNC(=N)N)NC(=O)[C@H](CO)NC(=O)[C@H](CCC(N)=O)NC(=O)[C@H](CO)NC(=O)[C@H](C)NC(=O)[C@H](Cc1ccccc1)NC(=O)[C@@H]1CCCN1C(=O)[C@H](CO)NC(=O)[C@H](CCC(N)=O)NC(=O)[C@H](Cc1ccccc1)NC(=O)[C@H](CCC(=O)O)NC(=O)[C@H](CCC(=O)O)NC(=O)[C@H](CC(=O)O)NC(=O)[C@@H](NC(=O)[C@H](CCCNC(=N)N)NC(=O)[C@@H](N)Cc1ccccc1)C(C)C)C(=O)N[C@@H](Cc1ccccc1)C(=O)N[C@@H](CCCNC(=N)N)C(=O)N1CCC[C@H]1C(=O)N[C@@H](CCCCNC(=N)N)C(=O)N[C@@H](CC(N)=O)C(N)=O [Agonist O] (H-FRVDEEFQSPFASQSRGFWLFRP[hArg]N-NH2; N-terminus assumed) |  | 35 | 0.42
